# Source: patent US10653717B2, “Antibiotic compositions” (priority 2016, dated 2020)
# Where two headings read alike, the source gives them in different places.
# Key:
# [1] = system: PA-1: Pseudomonas aeruginosa 1298#
# Description: (§1) There are five most difficult-to-treat MDR Gram-negative pathogen species in the clinic, which are also typical GSH-positive bacteria: Klebsiella pneumonia, Acinetobacter baumannii, Pseudomonas aeruginosa, Enterobacter cloacae and Escherichia coli. Two strains of each species were isolated, overnight cultures were diluted 1:1000 times in LB medium, and treated with Ag^+ with a serial concentration of ebselen in combination for 16 h. […] Among these five species, A. baumannii and E. cloacae are very readily formed drug-resistant strains, which are needed to be treated by or the fourth-generation cephalosporin in the clinic, including imipenem, cefepime, and cefotaxime, etc.
# (§2) Ten clinical isolated MDR Gram-negative (GSH-positive) strains were grown until an OD600 nm of 0.4 and were diluted 1:100 into 100 μl of LB medium in 96 micro-well plates. Serial dilutions of 100 μl ebselen and AgNO3 were added to the individual wells. […] The culture treated with 0.8% (v/v) DMSO was used as a control.
# [2] = system: ECL-1: Enterobacter cloacae 0431#
# Description: as §1, §2
# [3] = system: KP-2: K. pneumoniae subsp. pneumoniae 0322#
# Description: as §1, §2
# E. coli TrxR = E. coli TrxR (Escherichia coli, UniProt P0A9P4)
# Sequence of E. coli TrxR (P0A9P4 2-321 limits assumed): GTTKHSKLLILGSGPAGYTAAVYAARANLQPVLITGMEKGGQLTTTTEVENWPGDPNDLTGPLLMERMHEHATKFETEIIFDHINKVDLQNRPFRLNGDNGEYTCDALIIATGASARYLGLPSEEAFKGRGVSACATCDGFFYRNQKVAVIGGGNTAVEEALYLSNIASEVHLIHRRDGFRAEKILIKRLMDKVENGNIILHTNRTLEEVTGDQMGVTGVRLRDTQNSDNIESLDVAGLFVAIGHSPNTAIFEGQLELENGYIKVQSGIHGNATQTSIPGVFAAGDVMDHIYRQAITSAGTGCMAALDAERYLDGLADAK
# Description: (§3) Since ebselen is a known reversible competitive inhibitor of bacterial TrxR, the effect of Ag^+ on the activity of E. coli TrxR and Trx was investigated.
# (§4) Inhibition of recombinant bacterial TrxR by Silver was performed by using E. coli enzyme. The experiments were performed with 96 micro-well plates in the solution containing 50 mM Tris.HCl (pH 7.5), 200 μM NADPH, 1 mM EDTA, 1 mM DTNB, in the presence of 5 μM E. coli Trx. The absorbance at 412 nm was measured for 5 min with a VERSA micro-well plate reader and the slope of initial 2 min was used to represent TrxR activity. The Trx activity was detected by this method, coupled with the use of 100 nM E. coli TrxR instead of 5 μM E. coli Trx in the reaction mixture.
# E. coli Trx1 = E. coli Trx1 (Escherichia coli, UniProt P0AA25)
# Sequence of E. coli Trx1 (P0AA25 2-109): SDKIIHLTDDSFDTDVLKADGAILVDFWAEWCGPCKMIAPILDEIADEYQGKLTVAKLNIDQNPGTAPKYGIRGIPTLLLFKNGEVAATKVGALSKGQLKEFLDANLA
# Description: as §3, §4
# reduced E. coli Trx1 = reduced E. coli Trx1 (Escherichia coli, UniProt P0AA25); conditions: excitation 280 nm
# Sequence of reduced E. coli Trx1 (P0AA25 whole entry): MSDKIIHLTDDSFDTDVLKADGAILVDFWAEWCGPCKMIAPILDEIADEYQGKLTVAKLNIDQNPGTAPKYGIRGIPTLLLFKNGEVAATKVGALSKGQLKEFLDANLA
# Description: Pure recombinant 100 nM TrxR, and 5 μM Trx mixture were incubated with AgNO3 solution in the presence of 200 μM NADPH, and then their activities were detected by DTNB reduction assay. FIG. 4B is a fluorescent spectra of a complex between reduced E. coli 10 μM Trx1 with AgNO3. Reduced 10 μM E. coli Trx1 protein was incubated with a serial concentration of AgNO3 solution and the fluorescent spectra was detected with an excitation wavelength at 280 nm. Oxidized Trx1 (Trx-S2) was used as a control. […] After the treatment described in (B), Trx activity was assayed by a DTNB method in the presence of E. coli Trx1. […] Silver-inhibited E. coli Trx1 was passed through a desalting column to remove small molecules and then Trx activity was measured. E. coli Trx1 without the inhibition was used as a control.
# Fluorescent Spectra of reduced E. coli Trx with Silver were recorded at 10 μM in a PerkinElmer Enspire multilabel recorder using an excitation at 280 nm.
# [4] = system: PA-1: Pseudomonas aeruginosa 1298#; test: MIC of silver with antibiotics on clinical isolated MDR Gram-negative bacteria; format: cell-based; conditions: antibiotic 4 μM
# Description: (§5) There are five clinically most difficult-to-treat MDR Gram-negative pathogen species: Klebsiella pneumonia, Acinetobacter baumannii, Pseudomonas aeruginosa, Enterobacter cloacae and Escherichia coli. One strain from each species was isolated, and overnight cultures were diluted 1:1000 times in LB medium, and treated with serial concentrations of Ag^+ and antibiotics in combinations for 24 h (Table 10).
# (§6) Five clinical isolated MDR Gram-negative strains were grown until an OD600 nm of 0.4, and were diluted 1:1,000 into 100 μl LB medium in 96 micro-well plates. […] The cultures treated with the same serial dilutions of 100 μl ebselen and silver nitrate were used as the positive control.
# [5] = system: AB-1: Acinetobacter baumannii H#; test: as above; format: cell-based; conditions: antibiotic 4 μM
# Description: as §5, §6
# [6] = system: ECO-1: Escherichia coli 1139#; test: as above; format: cell-based; conditions: antibiotic 4 μM
# Description: as §5, §6
compound,measurement,setting,value
"O=[N+]([O-])[O-].[Ag+] [silver, silver nitrate]",MIC of silver in the presence of ebselen,[1]; Ebselen 0 μM,80 µM
same,MIC of silver in the presence of ebselen,[1]; Ebselen 1 μM,80 µM
same,MIC of silver in the presence of ebselen,[1]; Ebselen 2 μM,20 µM
same,MIC of silver in the presence of ebselen,[1]; Ebselen 4 μM,20 µM
same,MIC of silver in the presence of ebselen,[2]; Ebselen 0 μM,80 µM
same,MIC of silver in the presence of ebselen,[2]; Ebselen 1 μM,40 µM
same,MIC of silver in the presence of ebselen,[2]; Ebselen 2 μM,20 µM
same,MIC of silver in the presence of ebselen,[2]; Ebselen 4 μM,20 µM
same,MIC of silver in the presence of ebselen,[3]; Ebselen 0 μM,80 µM
same,MIC of silver in the presence of ebselen,[3]; Ebselen 1 μM,40 µM
same,MIC of silver in the presence of ebselen,[3]; Ebselen 2 μM,20 µM
same,MIC of silver in the presence of ebselen,[3]; Ebselen 4 μM,20 µM
same,inhibitory efficiency toward TrxR,E. coli TrxR; in the presence of reduced E. coli Trx1,decreased
same,IC50,"E. coli TrxR; read-out: IC50 on E. coli TrxR, 100 nM NADPH-pre-incubated E. coli TrxR",~50 nM
same,reversibility of the inhibition of Trx1,E. coli Trx1; Trx1 activity after desalting,irreversible
same,activity of Trx,"E. coli Trx1; along with the increase of Ag^+ concentration, 10 μM Trx1",decreased
same,tryptophan fluorescence intensity of 10 μM Trx1,reduced E. coli Trx1; 1-10 μM Ag^+,increased the tryptophan fluorescence intensity
same,fluorescent intensity of 10 μM Trx1,reduced E. coli Trx1; 20-100 μM Ag^+,decreased
"O=c1c2ccccc2[se]n1-c1ccccc1 [ebselen, 2-phenyl-1,2-benzisoselenazol-3(2H)-one]",MIC of silver in the presence of different antibiotics,[4],20 µM
same,MIC of silver in the presence of different antibiotics,[5],10 µM
same,MIC of silver in the presence of different antibiotics,[6],5 µM
